Legend:
D1 receptor [1] = experiment: In vivo PET imaging in cynomolgus monkey
Description: Experiment was performed in a cynomolgus monkey (Female, body weight 6.02 kg). The monkeys were sedated using intramuscular injection of ketamine and kept anesthetized using a mixture of sevoflurane, oxygen and medical air for the duration of the experiment. A baseline scan was performed following intravenous administration of 141 MBq of (−)-(Ia) at a specific activity of 795 GBq/μmol and PET images of the brain were acquired using the Siemens HRRT PET scanner (Siemens Preclinical Solutions, Knoxville, Tenn.).
(§1) Data were acquired for 123 min and binned into sinograms with the following frame timing: 9×20 sec; 3×1 min; 5×3 min; and 17×6 min. Regions of interest used in this study were caudate nucleus, putamen, cerebellum, frontal cortex, occipital cortex, globus pallidus, midbrain, ventral striatum, thalamus and temporal cortex. Registration parameters were obtained to apply the regions of interests to the PET scan and regional time-activity curves (TACs) were generated. Venous blood samples were withdrawn at 4, 15, 30, 60, 90, 120 minutes after (−)-(Ie) administration for metabolite analysis.

[2] = Metabolite profile by radio-HPLC of venous blood samples; assay type: in vivo, cynomolgus monkey; settings: for metabolites detected (words): venous blood, radio-HPLC
Description: as §1
The profile of metabolites of (−)-Ia was determined by radio-HPLC analysis of the venous blood samples collected post-administration at several timepoints. The parent fraction in plasma is 85% at 15 minutes, 60% at 30 minutes and still about 45% at 60 minutes.

D1 receptor [3] = molecular target: T1, D1 receptor (Macaca mulatta, UniProt O77680); experiment: Autoradiography on NHP brain slices; assay type: binding
T1 construct: 12 μm brain slices were prepared from fresh frozen NHP brain hemisphere; tissue Motac (Bordeaux, France); host or cells: Macaca mulatta brain sections (caudate putamen)
Description: Brain sections from non-human primate (NHP) Macaca mulatta were provided by Motac (Bordeaux, France) where all animal experiments were performed in accordance with european animal use ethical guidance and legislation.
12 μm brain slices were prepared from fresh frozen NHP brain hemisphere and were placed on glass microscopy slide. Autoradiography experiment was performed at room temperature in HBSS HEPES buffer (pH 7.4). NHP brain sections first equilibrated for 30 min before to be incubated for one hour with [^3H]compound in 1% DMSO. Slides were then washed in iced-cold 50 mM Tris-HCl buffer (pH 7.4) for 5 min followed by two washes in iced-cold distilled water. Sections were dried under atmospheric pressure at room temperature. Radioactivity on slice was either measured indirectly after exposure of slides to a phosphor screen, either using a direct counter. In every autoradiography experiments, a [^3H]standard was included for quantification and the NSB was defined as the residual binding of [^3H]compound observed in the presence of 10 μM non-labeled compound.

human D1R = human D1R (Homo sapiens, UniProt P21728); experiment: Radioligand binding on HEK hD1R membranes with or without D1 PAM; design: expressed in transfected cells; host or cells: HEK cells, transient transfection, pcDNA3.1; membrane preparation
Description: Transient transfection of human dopamine D1R was performed with pcDNA3.1 vector in human embryonic kidney cells (HEK hD1R).
The membrane of HEK hD1R cells were used to measure radioligand binding. 48 hours post transfection, cells were pelleted by centrifugation at 1,500 g and 4° C. for 10 min. Pellet was washed once with ice-cold phosphate buffered saline solution (PBS) and centrifuged as described just above. Pellet was homogenized in a buffer containing 15 mM Tris-HCl, 0.3 mM ethylene diamine tetraacetic acid, 1 mM ethylene glycol tetraacetic acid, 2 mM MgCl2 (pH 7.5) and complemented with protease inhibitor cocktail. The homogenate was freeze-thawed twice and equilibrated at 25° C. followed by a 10 min DNAse (10 U/ml) treatment. Subsequently, the solution was centrifuged at 40,000 g and 4° C. for 30 min. Finally, the pellet was resuspended in 20 mM Tris-HCl buffer (pH 7.4) containing 250 mM sucrose and store at −80° C. until D1 radioligand binding assay. […] At the end of the incubation period, the protein-bound radioligand was recovered by filtration through pre-soaked GF/B glass fiber filters. Filters were washed with at least 4 times the assay volume of ice-cold 50 mM Tris-HCl buffer (pH 7.4). […] The filters were dried and the radioactivity determined by liquid scintillation.
Competition/potentiation binding experiments were carried out at constant (−)-(Ic) concentration (1-4 nM) and 10 increasing concentrations of (−)-(Ic) or compound b (10^−10 M to 10^−5 M).

D1 receptor [4] = experiment: In vivo potentiation PET imaging with D1 PAM; design: species or system cynomolgus monkeys (Macaca fascicularis); settings: FIG. 5, Compound-B 20 mg/kg
Description: Two cynomolgus monkeys (Macaca fascicularis) housed at the MPI Research (Mattawan, Mich.), were used as research subjects for the in vivo potentiation PET studies.
Each animal was anesthetized with propofol iv bolus (2.5-5.0 mk/kg) and maintained with propofol iv Continuous Rate Infusion (CRI, 0.1-0.6 mg/kg/min). for at least 30 minutes prior to initiation of Compound-B i.v. dose administration. Several dose levels were administered. […]
Following Compound (−)-Ib administration, arterial blood samples were drawn from the central iliac artery prior to the dosing with Compound (−)-Ib and at 13 time points up to 120 min post-injection of Compound (−)-Ib. All blood samples were collected in anticoagulant tubes and stored on wet ice until quantification for radioactivity by gamma counter, measure of Compound (−)-Ib parent fraction in plasma over time by HPLC and Compound (−)-Ib ex vivo stability in blood.
Reconstructed dynamic brain PET images were transferred and analyzed using the image processing PMOD software package (PMOD Technologies, Zurich, Switzerland). […] Subsequent PET images acquired during drug studies were aligned first to the baseline images and then transformed into the common MR template space using the already calculated transformation from the baseline images. […]

hD1R in SK-N-MC cells = hD1R in SK-N-MC cells (Homo sapiens, UniProt P21728); experiment: cAMP HTRF D1 functional assay; settings: for Erel: relative efficacy compared to dopamine maximum response, SK-N-MC cells
Description: The reaction was terminated by consecutive additions of 10 μL d2 detection reagent and the cryptate reagent both diluted in lysis buffer. After a period of 60 min at room temperature, changes in HTRF emission ratio were determined and transformed in [cAMP]i using a standard curve.

[5] = Logan reference tissue model, cerebellum as reference
[6] = saturation binding, 10 μM D1 PAM, HEK hD1R membranes (FIG. 3B)

T1 sequence (O77680 whole entry): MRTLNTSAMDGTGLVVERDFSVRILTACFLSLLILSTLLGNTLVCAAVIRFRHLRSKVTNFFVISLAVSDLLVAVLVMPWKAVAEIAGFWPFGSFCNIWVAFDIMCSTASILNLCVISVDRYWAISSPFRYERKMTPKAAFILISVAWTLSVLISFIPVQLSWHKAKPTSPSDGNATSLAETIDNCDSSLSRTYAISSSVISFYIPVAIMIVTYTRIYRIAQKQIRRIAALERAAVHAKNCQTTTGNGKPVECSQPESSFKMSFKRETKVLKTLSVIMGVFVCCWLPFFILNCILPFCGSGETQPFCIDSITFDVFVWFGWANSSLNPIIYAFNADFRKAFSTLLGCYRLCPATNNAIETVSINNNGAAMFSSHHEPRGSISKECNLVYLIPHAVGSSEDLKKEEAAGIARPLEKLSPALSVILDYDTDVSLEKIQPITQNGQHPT
Sequence of human D1R (P21728 whole entry): as the sequence (O77680 whole entry) above, with I311N counted along it
Sequence of hD1R in SK-N-MC cells (P21728 whole entry): as the sequence (O77680 whole entry) above, with I311N counted along it

Cc1c(-c2ccc(Oc3nccc4occc34)cc2CF)n([11CH3])c(=O)[nH]c1=O (single isomer, unassigned) [(−)-(Ia), [^11C]-6-(2-(fluoromethyl)-4-(furo[3,2-c]pyridin-4-yloxy)phenyl)-1,5-dimethylpyrimidine-2,4(1H,3H)-dione]
peak uptake SUV (D1 receptor [1]; 5-10 minutes post-administration, across brain regions, iv): 3.5-4 | binding potential (BPND), caudate (D1 receptor [1]; [5]): 0.94 | binding potential (BPND), putamen (D1 receptor [1]; [5]): 0.87 | SUV in caudate and putamen (D1 receptor [1]; at 60 minutes): about 2 | SUV in cerebellum (D1 receptor [1]; at 60 minutes): about 1 | parent fraction in plasma ([2]; at 15 minutes): 85% | parent fraction in plasma ([2]; at 30 minutes): 60% | parent fraction in plasma ([2]; at 60 minutes): about 45% | metabolites detected (words) ([2]; listed as (Ia)): no associated lipophilic metabolite | metabolites detected (words) ([2]; listed as (−)-Ia): only hydrophilic metabolites unlikely to cross the blood-brain barrier have been detected

[^3H]-6-(2-(fluoromethyl)-4-(furo[3,2-c]pyridin-4-yloxy)phenyl)-1,5-dimethylpyrimidine-2,4(1H,3H)-dione [(−)-(Ic)]
specific binding in the presence of a D1 PAM (D1 receptor [3]; NHP brain slices, FIG. 4): significantly increased | Total Binding in caudate putamen (words) (D1 receptor [3]; NHP brain slices, listed as (Ic)): significantly binds in caudate putamen | Total Binding in caudate putamen (words) (D1 receptor [3]; NHP brain slices, listed as (−)-Ic): significant binding | non specific binding (D1 receptor [3]; in the presence of 10 μM compound (I), caudate putamen): 20% | effect of D1 PAM on radioligand binding (human D1R; HEK hD1R membranes (FIG. 3)): significantly improved binding properties | potentiation of radioligand binding by D1 PAM (human D1R; low nanomolar radioligand concentration (1-4 nM), FIG. 3C): > 50% | decrease of KD by D1 PAM (human D1R; [6]): 20% | increase of Bmax by D1 PAM (human D1R; [6]): 45%

Cc1c(-c2ccc(Oc3nccc4occc34)cc2CF)n(C)c(=O)[nH]c1=O (single isomer, unassigned) [(−)-(Ia), [^11C]-6-(2-(fluoromethyl)-4-(furo[3,2-c]pyridin-4-yloxy)phenyl)-1,5-dimethylpyrimidine-2,4(1H,3H)-dione]
brain uptake pattern (D1 receptor [1]; PET images, summed SUV 33-63 minutes): uptake pattern consistent with the reported distribution of D1-like receptors in the brain

Cc1c(-c2ccc(Oc3nccc4occc34)cc2C[18F])n(C)c(=O)[nH]c1=O [(−)-(Ib), [^18]-6-(2-(fluoromethyl)-4-(furo[3,2-c]pyridin-4-yloxy)phenyl)-1,5-dimethylpyrimidine-2,4(1H,3H)-dione]
effect of D1 PAM on tracer binding/uptake in vivo (words) (D1 receptor [4]): significantly improved binding properties | effect of D1 PAM on tracer binding/uptake in vivo (words) (D1 receptor [4]; listed as (−)-Ib): increased uptake

Cc1c(-c2ccc(Oc3nccc4occc34)cc2CF)n(C)c(=O)[nH]c1=O (single isomer, unassigned) [Compound (−)-(I), 6-(2-(fluoromethyl)-4-(furo[3,2-c]pyridin-4-yloxy)phenyl)-1,5-dimethylpyrimidine-2,4(1H,3H)-dione]
EC50 (hD1R in SK-N-MC cells): 5.01 nM | agonist-like effect on D1 receptor (hD1R in SK-N-MC cells; cAMP HTRF): D1 partial agonist-like effect | Erel (hD1R in SK-N-MC cells): 53 ± 13% | Erel (hD1R in SK-N-MC cells; listed as (−)-I): 53%

Source: US20220162221A1, “Imaging Agents” (UCB Biopharma SRL, priority 2017, published 2022)
